Assay results: US20050250853A1, “Beta-tubulin inhibitors” (priority 1999, published 2005)
Entries after “also recorded” stand apart in the source; their conditions may differ. Marks after values point to notes of the source that are not given here.

What was measured:
[1] = tested on: MDA-MB-231 cells; assay: cells; format: cell-based, human
Method: (§1) Human breast carcinoma cell line, MDA-MB-231, was obtained from the American Type Culture Collection (ATCC HTB-26; Bethesda, Md.). MDA-MB-231 cells were grown in RPMI 1640 medium supplemented with 10% bovine calf serum (Hyclone, Road Logan, Utah). Wild-type Chinese Hamster Ovary cells (CHO-10001) (7), colchicine- and vinblastine-resistant (CHO-VV 3-2) (8) and taxol-resistant (CHO-TAX 5-6) cells (9) were generously provided by Dr. Fernando Cabral (University of Texas Medical School, Houston, Tex.). These cells were cultured in RPMI 1640 containing 10% fetal bovine serum. SK—N—SH human neuroblastoma cells, (ATCC HTB-11; Bethesda, Md.) were cultured in MEM medium supplemented with 2 mM L-glutamine, 1.5 g/liter sodium bicarbonate, 0.1 mM non-essential amino acids, 1 mM sodium pyruvate and 10% fetal bovine serum. Cells were cultured in a humidified atmosphere at 37° C. in 5% CO2.
(§2) Cytotoxicity was assessed using the MTT assay (3-(4,5-dimethylthiazol-2-yl)-2,5-diphenyltetrazolium bromide) as described by Carmichael et al. (12).

[2] = tested on: β-tubulin; assay: Separation of soluble and polymerized tubulins, Western blot of β-tubulin; format: cell-based, human; details: MDA-MB-231 cells, 30 μM, 24 h and 48 h; for formation of modified β-tubulin (second immunoreactive band of lower Mr): free tubulin fraction
Method: FIG. 2. Effects of CEU derivatives on microtubule depolymerization. Exponentially growing MDA-MB-231 cells were incubated in the absence or the presence of 30 μM of CEU derivatives including (A) 4-tBCEU, 4-iPCEU or 4-sBCEU for 24 and 48 h respectively; (B) 2-ECEU, 3-ECEU or 4-ECEU for 24 and 48 h; and (C) 4-tBEU, 4-iPEU, 4-sBEU, 4-tBCPU, CEU or 4-methoxyCEU for 48 h. Free tubulin and microtubule fractions were isolated and analyzed by Western blot. Data are representative of three different experiments.
Separation of soluble and polymerized tubulins from MDA-MB231 cells was carried out as described by Minotti et al. (14) with minor modifications. Briefly, after drug exposure, about 5×10^6 cells in 100-mm petri dishes were washed with PBS at 37° C. and harvested in 3 ml of PBS containing 0.4 μg/ml of taxol using a rubber policeman.
Cells were centrifuged and lysed using 250 μl of microtubule-stabilizing buffer (20 mM Tris-HCl, pH 6.8, 140 mM NaCl, 1 mM MgCl2, 2 mM EDTA, 0.5% Nonidet P-40 and 0.4 μg/ml taxol), and then transferred to 1.5 ml microcentrifuge tubes. Samples were centrifuged at 12,000×g for 10 min at 4° C. and the supernatants containing soluble tubulin were placed in separate microcentrifuge tubes containing 250 μl of 2× Laemmli sample buffer (15). Pellets containing the polymerized tubulin were resuspended in 250 μl of water, followed by two freeze/thawing cycles, and the addition of 250 μl of 2× Laemmli sample buffer. Samples were analyzed by SDS-PAGE and immunoassay was performed as described below.
(§3) Samples (1×10^5 cells) were analyzed by 10% SDS-PAGE using the Laemmli system (15). Membranes were then incubated with PBSMT (PBS, pH 7.4, 5% fat-free dry milk and 0.1% Tween-20) for 1 h at room temperature, and then with 1:500 monoclonal anti-β-tubulin (clone TUB 2.1, Sigma) or 1:400 anti (clone no. SDL.3D10, Sigma) for 1 h. […] Membranes were washed with PBSMT and incubated with 1:2500 peroxidase-conjugated anti-mouse immunoglobulin (Amersham Canada, Oakville, Canada) in PBSMT for 30 min. Detection of the immunoblot was carried out with the ECL Western blotting detection reagent kit (Amersham Canada, Oakville, Canada).

[3] = tested on: CHO VV 3-2 cells; assay: MTT cytotoxicity on vinblastine- and colchicine-resistant CHO cells expressing mutated tubulin; format: cell-based, Chinese hamster; details: Cricetulus griseus, CHO-VV 3-2; vinblastine- and colchicine-resistant CHO cells, 120 h, MTT, mean ± SD; read-out: IC50 CHO VV 3-2
Method: as §1, with “Wild-type Chinese Hamster Ovary cells (CHO-10001) (7), colchicine- and vinblastine-resistant (CHO-VV 3-2) (8) and taxol-resistant (CHO-TAX 5-6) cells (9) were generously provided by Dr. Fernando Cabral (University of Texas Medical School, Houston, Tex.).” left out
as §2
(§4) The cytotoxicity of 4-tBCEU, 4-iPCEU and 4-sBCEU in two CHO cell lines having differential sensitivity to antmicrotubule agents was evaluated. These cell lines are derived from parental CHO-10001 cells and express mutated tubulins.

[4] = tested on: CHO 10001 cells (wild-type); assay: MTT cytotoxicity on wild-type CHO cells; format: cell-based, Chinese hamster; details: Cricetulus griseus, CHO10001; wild-type CHO cells, 120 h, MTT, mean ± SD; read-out: IC50 CHO 10001
Method: as §1, with “Wild-type Chinese Hamster Ovary cells (CHO-10001) (7), colchicine- and vinblastine-resistant (CHO-VV 3-2) (8) and taxol-resistant (CHO-TAX 5-6) cells (9) were generously provided by Dr. Fernando Cabral (University of Texas Medical School, Houston, Tex.).” left out
as §2, §4

[5] = tested on: CHO TAX 5-6 cells; assay: MTT cytotoxicity on taxol-resistant CHO cells expressing mutated tubulin; format: cell-based, Chinese hamster; details: Cricetulus griseus, CHO-TAX 5-6; taxol-resistant CHO cells, 120 h, MTT, mean ± SD; read-out: IC50 CHO TAX 5-6
Method: as §1, with “Wild-type Chinese Hamster Ovary cells (CHO-10001) (7), colchicine- and vinblastine-resistant (CHO-VV 3-2) (8) and taxol-resistant (CHO-TAX 5-6) cells (9) were generously provided by Dr. Fernando Cabral (University of Texas Medical School, Houston, Tex.).” left out
as §2, §4

[6] = tested on: β-tubulin; assay: Competition with antimicrotubule agents for the site of β-tubulin alkylation; format: cell-based, human; details: for effect of competitor on formation of modified β-tubulin induced by CEU: MDA-MB-231 cells, 48 h, 30 μM CEU with 5 μM taxol, colchicine or vinblastine or 100 μM iodoacetamide
Method: FIG. 6. Identification of the site of alkylation of β-tubulin by CEU: competition with antimicrotubule agents. […] Data are representative of three different experiments.
as §3
The latter agents were used because they have well defined binding sites on β-tubulin (24-28) and because they were expected to inhibit alkylation by CEU if they shared a common binding site. […] These putative alkylation sites are two nucleophilic mercapto groups of cysteine residues at positions 239 and 354, respectively (25). To assess the possible alkylation of these mercapto residues by CEU, MDA-MB-231 cells were treated with 4-tBCEU in the presence of iodoacetamide, a specific thiol alkylating agent (31, 32). […] Similar experiments were carried out using EBI, a bifunctional alkylating agent that specifically induces cross-linking between Cys239 and Cys354 of β-tubulin (32).

[7] = tested on: MDA-MB-231 cells; assay: Cell cycle analysis by propidium iodide flow cytometry; format: cell-based, human; details: CEU derivatives at 30 μM, 24 h; flow cytometry
Method: FIG. 1. Effect of CEU derivatives on cell cycle. Exponentially growing MDA-MB-231 cells were incubated in the absence or presence of 30 μM of either 4-tBCEU, 4-iPCEU or 4-sBCEU for 24 and 48 h, respectively, at 37° C. The cell cycle was evaluated using propidium iodide staining and flow cytometric analysis. Data are representative of three independent experiments.
Following incubation of MDA-MB-231 cells with 4-tBCEU, 4-iPCEU or 4-sBCEU, the cells were harvested, resuspended in 1 ml PBS and fixed by the addition of 2.4 ml of ice cold anhydrous ethanol. Then, 5×10^5 cells from each sample were centrifuged for 3 min at 1000×g. Cell pellets were resuspended in PBS containing 50 μg/ml of PI and 40 U/ml of ribonuclease A (Boehringer Mannheim, Laval, Calif.). Mixtures were incubated at room temperature for 30 min and cell cycle distribution was analyzed using an Epics Elite ESP flow cytometer (Coulter Corporation, Miami, Fla., USA).
The effect of CEU, namely 4-tBCEU, 4-PCEU and 4-sBCEU, on the cell cycle was analyzed. To this end, exponentially growing MDA-MB-231 cells were treated with 30 μM 4-tBCEU, 4-iPCEU or 4-sBCEU for 24 or 48 h followed by an evaluation of cell cycle distribution by flow cytometry using propidium iodide, a fluorescent DNA dye. […] Induction of mitosis blockage in prophase by CEU derivatives was confirmed by mitotic index analysis as described by Drouin (22).

[8] = Kinetics of alkylation of 4-(4-nitrobenzyl)pyridine (colorimetric assay); format: physicochemical; details: 80° C., pH 4.3, absorbance at 570 nm, linear regression, mean ± SD
Method: The rate constant of alkylation (K′) of CEU derivatives and chlorambucil was evaluated by a […] assay as described by Bardos et al (13). Briefly, 1 ml of a 10% (v/v) solution of 4-(4-nitrobenzyl)pyridine in ethanol and 1 ml of 50 mM sodium acetate (pH 4.3) were added to an ethanol solution (95%) containing 400 nmol per ml of either chlorambucil or CEU and heated to 80° C. in a shaking water bath for 60, 90, 120 or 150 min. The reaction was stopped by cooling the mixtures on ice for 5 min. Then, 1.5 ml of 0.1 M KOH: ethanol (1:2, v/v) were added to the reaction mixture. Samples were vortexed for 12 sec and set aside for 2.5 min prior to reading the absorbance at 570 nm. The values were compared with those obtained using a blank sample containing all reagents except the alkylating agent.

Compound: O=C(NCCCl)Nc1ccccc1 [CEU]
- cytotoxicity in words (active / inactive CEU) [1]: inactive
- microtubule depolymerization [2]: inactive

Compound: COc1ccc(NC(=O)NCCCl)cc1 [Example 4-methoxyCEU, 4-methoxy[3-(2-chloroethyl)ureido]benzene]
- microtubule depolymerization [2]: inactive

Compound: CC(=O)O[C@H]1C(=O)[C@@]2(C)[C@H]([C@H](OC(=O)c3ccccc3)[C@]3(O)C[C@H](OC(=O)[C@H](O)[C@@H](NC(=O)c4ccccc4)c4ccccc4)C(C)=C1C3(C)C)[C@]1(OC(C)=O)CO[C@@H]1C[C@@H]2O [Taxol, reference compound]
- IC50 [3]: 1100 ± 200 nM
- formation of modified β-tubulin (second immunoreactive band of lower Mr) [2]: no such band
- IC50 [4]: 1700 ± 300 nM
- IC50 [5]: 6100 nM
- effect of competitor on formation of modified β-tubulin induced by CEU [6]: abrogated the formation of modified β-tubulin

Compound: CCNC(=O)Nc1ccc(C(C)C)cc1 [Example 4-iPEU, 4-iso-propyl[3-(ethyl)ureido]benzene]
- microtubule depolymerization [2]: no depolymerization
- formation of modified β-tubulin (second immunoreactive band of lower Mr) [2]: no effect on β-tubulin

Compound: 4-sec-butyl[3-(ethyl)ureido]benzene [Example 4-sBEU]
- cytotoxicity in words (active / inactive CEU) [1]: inactive
- microtubule depolymerization [2]: no depolymerization
- formation of modified β-tubulin (second immunoreactive band of lower Mr) [2]: no effect on β-tubulin

Compound: NC(=O)CI [iodoacetamide]
- effect of pre-treatment on β-tubulin alteration induced by EBI ([6]; 24 h with 5 μM colchicine, 5 μM vinblastine or 100 μM iodoacetamide, then 100 μM EBI for 2 h): abrogated
- effect of competitor on formation of modified β-tubulin induced by CEU [6]: completely prevented β-tubulin alkylation by 4-tBCEU

Compound: 4-tert-butyl[3-(2-chloropropyl)ureido]benzene [Example 4-tBCPU]
- cytotoxicity in words (active / inactive CEU) [1]: inactive
- microtubule depolymerization [2]: inactive

Compound: COc1cc2c(c(OC)c1OC)-c1ccc(OC)c(=O)cc1[C@@H](NC(C)=O)CC2 [Colchicine, reference compound]
- accumulation of cells in G2+M [7]: G2+M block

Compound: O=C(O)CCCc1ccc(N(CCCl)CCCl)cc1 [CBL, Chlorambucil, reference compound]
- IC50 ([1]; Homo sapiens, MDA-MB-231, read-out: IC50 (μM) MDA-MB-231): 9.3 ± 3.5 µM
- K′ (constant of alkylation of 4-(4-nitrobenzyl)pyridine) [8]: 38.9 ± 5.1^a

Compound: CCc1ccccc1NC(=O)NCCCl [Example 2-ECEU, 2-ethyl[3-(2-chloroethyl)ureido]benzene]
- cytotoxicity in words (active / inactive CEU) [1]: inactive
- microtubule depolymerization [2]: no depolymerization
- formation of modified β-tubulin (second immunoreactive band of lower Mr) [2]: no effect on β-tubulin

Compound: CCc1cccc(NC(=O)NCCCl)c1 [Example 3-ECEU, 3ethyl[3-(2-chloroethyl)ureido]benzene]
- microtubule depolymerization [2]: delayed in time
- formation of modified β-tubulin (second immunoreactive band of lower Mr) [2]: delayed in time

Compound: CC[C@]1(O)C[C@@H]2CN(CCc3c([nH]c4ccccc34)[C@@](C(=O)OC)(c3cc4c(cc3OC)N(C)[C@H]3[C@@](O)(C(=O)OC)[C@H](OC(C)=O)[C@]5(CC)C=CCN6CC[C@]43[C@@H]65)C2)C1 [Vinblastine, reference compound]
- IC50 [3]: 94 ± 3 nM
- formation of modified β-tubulin (second immunoreactive band of lower Mr) [2]: no such band
- IC50 [4]: 30 ± 3 nM
- IC50 [5]: 21 ± 3 nM
- effect of competitor on formation of modified β-tubulin induced by CEU [6]: but not vinblastine, prevented formation of the additional β-tubulin band; also recorded: but not vinblastine, prevented the formation of modified β-tubulin
- accumulation of cells in G2+M [7]: G2+M block

Compound: CCc1ccc(NC(=O)NCCCl)cc1 [Example 4-ECEU, 4-ethyl(3-(2-chloroethyl)ureido]benzene]
- microtubule depolymerization [2]: delayed in time
- formation of modified β-tubulin (second immunoreactive band of lower Mr) [2]: delayed in time

Compound: CCNC(=O)Nc1ccc(C(C)(C)C)cc1 [Example 4-tBEU, 4-tert-butyl[3-(ethyl)ureido]benzene]
- microtubule depolymerization [2]: no depolymerization
- formation of modified β-tubulin (second immunoreactive band of lower Mr) [2]: no effect on β-tubulin
